This experiment addresses T1, human leukocyte elastase (HLE) (Homo sapiens, UniProt P08246).
T1 construct: purchased Elastin Product Company
T1 sequence (P08246 30-267): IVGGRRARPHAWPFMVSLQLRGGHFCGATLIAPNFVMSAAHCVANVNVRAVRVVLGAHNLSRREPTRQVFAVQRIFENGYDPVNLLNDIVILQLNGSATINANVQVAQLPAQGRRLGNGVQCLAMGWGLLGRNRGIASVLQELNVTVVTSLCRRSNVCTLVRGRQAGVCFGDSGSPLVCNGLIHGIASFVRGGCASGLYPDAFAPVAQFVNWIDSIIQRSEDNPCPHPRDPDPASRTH
Nature of the experiment: Kinetic parameters for HLE inhibition (fluorogenic substrate assay). In kind it is biochemical. The settings on record: 37° C., 0.027M pH 7.4 phosphate buffer, substrate N-methoxysuccinyl-alanyl-prolyl-valyl-7-amido-4-methylcoumarin; for Ki: read-out: "Potency" Ki^ss (apparent dissociation constant of the HLE-inhibitor complex at steady state). Here is the method: The compounds of the present invention are characterized by high inhibitory activity on elastases, especially human leukocyte elastase (HLE). […] These efficacy parameters for HLE inhibition, Ki^ss and k5/Ki, are defined in the equation below, representing the interaction of the enzyme (E) with the compounds (I), which is monitored (see Protocol) in the presence of a […] enzyme substrate (S): [formula]
Kinetic parameters of HLE (Elastin Product Company) were determined at 37° C., 0.027M pH 7.4 phosphate buffer, […], 1% MeCN, NaCl (I=0.15), by monitoring the release of 7-amino-4-methylcoumarin (fluorescence detection) from N-methoxysuccinyl-alanyl-prolyl-valyl-7-amido-4-methylcoumarin as the substrate, according to the equations: [formula]
Full details of the Experimental Protocol are reported in M. Alpegiani et al., Eur. J. Med. Chem. 1992, 27, 875-890.

Turning to `CO[C@H]1C(=O)N2C(C(=O)N3CCCC3)=C(C)C(OC(=O)c3c(C)cc(C)cc3C)S(=O)(=O)[C@H]12` (stereo partly drawn) [Compound No. 1, 2,4,6-Trimethylbenzoic Acid (6R,7S)-7-methoxy-3-methyl-5,5,8-trioxo-2-(pyrrolidine-1-carbonyl)-5-thia-1-aza-bicyclo[4.2.0] oct-2-en-4-yl Ester], the “"Efficiency" k5/Ki (rate of formation of the HLE-inhibitor complex)” value is reported as 800,000 M^−1s^−1 and the Ki is less than 2 nM.

As for `CO[C@H]1C(=O)N2C(C(=O)N3CCCC3)=C(C)C(Sc3nc(=O)c(O)nn3C)S(=O)(=O)[C@H]12` (stereo partly drawn) [Compound No. 11, (6R,7S)-4-(6-Hydroxy-2-methyl-5-oxo-2,5-dihydro-[1,2,4]triazin-3-yl-sulfanyl)-7-methoxy-3-methyl-5,5-dioxo-2-(pyrrolidine-1-carbonyl)-5-thia-1-aza-bicyclo [4.2.0]oct-2-en-8-one], the “"Efficiency" k5/Ki (rate of formation of the HLE-inhibitor complex)” value was 27,000 M^−1s^−1 and the Ki worked out at 20 nM.

For `CO[C@H]1C(=O)N2C(C(=O)N3CCCC3)=C(CSc3nc(=O)c(=O)[nH]n3C)CS(=O)(=O)[C@H]12` [Reference, reference compound], the “"Efficiency" k5/Ki (rate of formation of the HLE-inhibitor complex)” value is on record as 9,200 M^−1s^−1 and the Ki amounted to 100 nM.

Source of the values: US20010011085A1, “4-SUBSTITUTED CEPHEM DERIVATIVES AS ELASTASE INHIBITORS” (priority 1995, published 2001).
